Settings: Liquid, Closed cell (Static) method

OCc1ccco1 [2-hydroxymethylfuran]
Settings | vapor or sublimation pressure [kPa]
273.11 K | 0.009
283.08 K | 0.022
293.16 K | 0.053
303.09 K | 0.115
313.15 K | 0.242
323.15 K | 0.475
323.16 K | 0.471
331.87 K | 0.815
333.15 K | 0.89
333.17 K | 0.882
341.85 K | 1.479
343.15 K | 1.597
343.19 K | 1.611
351.81 K | 2.577
353.15 K | 2.755
353.2 K | 2.787
362.09 K | 4.368
363.15 K | 4.588
363.2 K | 4.649
372.04 K | 7.065
373.15 K | 7.398
382.09 K | 11.09
383.15 K | 11.59
392.15 K | 17.1
393.15 K | 17.68
402.18 K | 25.11
412.11 K | 36.53

Cc1ccc(C)o1 [2,5-dimethylfuran]
Settings | vapor or sublimation pressure [kPa]
313.15 K | 13.94
323.15 K | 21.54
333.15 K | 32.2
343.15 K | 46.74
353.15 K | 66.08
363.15 K | 91.23
373.15 K | 123.28
383.15 K | 163.43
393.15 K | 212.88

CC(=O)CC(C)C [4-methylpentan-2-one]
Settings | vapor or sublimation pressure [kPa]
313.15 K | 5.882
323.15 K | 9.417
331.98 K | 13.85
333.15 K | 14.56
341.81 K | 20.72
343.15 K | 21.82
351.81 K | 30.29
353.15 K | 31.8
362.04 K | 43.51
363.15 K | 45.19
372.03 K | 60.56
373.15 K | 62.78
382.04 K | 82.62
383.15 K | 85.44
392.07 K | 110.74
393.15 K | 114.12

Reference: the NIST ThermoML archive (doi:10.1016/j.jct.2013.10.039)
